Measurements taken from PubChem BioAssay (NCI).
Counter-ions that a name gives are not always drawn.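 Compound exposure: 48 hours, 5 concentrations, 96-well plates. TGI: total growth inhibition.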 Where a SMILES comes first, the peptide text is derived from it. The star is where a group is joined. Tfa = O=C(C(F)(F)F)*

Tests used:
Test in all cases: NCI anticancer screen, dose series, 48 h
[1] = tested on: MDA-MB-231 breast
[2] = tested on: NCI/ADR-RES ovarian
[3] = tested on: SK-MEL-5 melanoma
[4] = tested on: SK-MEL-2 melanoma
[5] = tested on: LOX IMVI melanoma
[6] = tested on: BT-549 breast
[7] = tested on: OVCAR-4 ovarian
[8] = tested on: MALME-3M melanoma
[9] = tested on: NCI-H23 lung
[10] = tested on: UACC-257 melanoma
[11] = tested on: HCT-15 colon
[12] = tested on: CAKI-1 renal
[13] = tested on: SNB-19 CNS
[14] = tested on: ACHN renal
[15] = tested on: K-562 leukemia
[16] = tested on: SF-268 CNS
[17] = tested on: SF-295 CNS
[18] = tested on: SNB-75 CNS
[19] = tested on: EKVX NSCLC
[20] = tested on: HOP-62 NSCLC

Compound | TGI [1] | TGI [2] | TGI [3] | TGI [4] | TGI [5] | TGI [6] | TGI [7] | TGI [8] | TGI [9] | TGI [10] | TGI [11] | TGI [12] | TGI [13] | TGI [14] | TGI [15] | TGI [16] | TGI [17] | TGI [18] | TGI [19] | TGI [20]
Cc1ccc2c3c1O[C@H]1c4[nH]c5ccccc5c4C[C@@]4(O)[C@@H](C2)N(C)CC[C@]314 | 28.5 µM | 35.8 µM | 28.2 µM | 35.3 µM | 29.6 µM | 31.8 µM | 34 µM | 29.3 µM | 40.4 µM | 28.2 µM | 32.5 µM | 34.4 µM | 34.3 µM | 29.5 µM | 36.8 µM | 34.7 µM |  |  |  | 
NNC(=O)CSc1nc2ccc(I)cc2c(=O)n1Cc1ccccc1 | 34.1 µM | > 100 µM | 38.5 µM | 46 µM | > 100 µM | 42.6 µM | 71.2 µM |  | 74.7 µM | 44 µM | > 100 µM | 40.2 µM | 54.8 µM | 40.2 µM | 88 µM | 41.3 µM | 53.7 µM | 50.4 µM | 33.2 µM | 43.9 µM
CC[C@@]1(N(C)C)C(=O)OCc2c1cc1n(c2=O)Cc2cc3ccccc3nc2-1 | > 100 µM | 51.9 µM | > 100 µM | 77.5 µM | 33.5 µM | 39.5 µM | > 100 µM | 55.3 µM | 32 µM | > 100 µM | > 100 µM |  | > 100 µM | 42.2 µM | > 100 µM | 36.7 µM | 37.2 µM | 34.5 µM | > 100 µM | 36.2 µM
O=S(=O)(O)c1c(Cl)cc(O)c2ncccc12 | > 100 µM | > 100 µM | > 100 µM | > 100 µM | > 100 µM | > 100 µM | > 100 µM |  | > 100 µM | > 100 µM | > 100 µM | > 100 µM | > 100 µM | > 100 µM | > 100 µM |  | > 100 µM | > 100 µM | > 100 µM | > 100 µM
CCOC(=O)CN1C(=O)c2c(c(C)n(-c3ccccc3)c2C)C1=O | > 100 µM | > 100 µM | > 100 µM | > 100 µM |  | > 100 µM | > 100 µM | > 100 µM | > 100 µM | > 100 µM | > 100 µM | > 100 µM | > 100 µM | > 100 µM | > 100 µM | > 100 µM | > 100 µM | > 100 µM | > 100 µM | > 100 µM
O=C(O)CC(NC(=O)C(F)(F)F)C(=O)NC(Cc1ccc(O)cc1)C(=O)O (stereo not drawn) (Tfa-Asp-Tyr-OH; configuration not given here) | > 50 µM | > 50 µM | > 50 µM | > 50 µM |  | > 50 µM |  | > 50 µM | > 50 µM | > 50 µM | > 50 µM | > 50 µM | > 50 µM | > 50 µM | > 50 µM | > 50 µM | > 50 µM | > 50 µM | > 50 µM | > 50 µM
